Measurements published in ChEMBL document CHEMBL5523710 (Eur J Med Chem, 2024).
Active and inactive are the calls of the source. The rule behind the calls is not given here.

Legend:
[1] = test system: HAL-01; assay: Cytotoxicity against human HAL-01 cells measured for 72 hrs by celltiter-glo assay; settings: HAL-01, 72 h
[2] = test system: Jurkat; assay: Cytotoxicity against human Jurkat cells measured for 72 hrs by celltiter-glo assay
[3] = test system: HL-60; assay: Cytotoxicity against human HL-60 cells measured for 72 hrs by celltiter-glo assay; settings: HL-60, 72 h
[4] = test system: HL-60; assay: Induction of apoptosis in human HL-60 cells assessed as increase in dead cells at 1 to 5 uM measured for 48 hrs by Annexin/PI staining based analysis; type: functional, cell-based; settings: dose 1-5 µM
[5] = test system: HL-60; settings: Homo sapiens, dose 24.0 nM, time 24.0 hrs
[6] = test system: MOLM-13; assay: Synergistic cytotoxicity against human MOLM-13 cells measured after 72 hrs in presence of decitabine by celltiter-glo assay; type: functional, cell-based
[7] = test system: HL-60; settings: Homo sapiens, dose 24.0 nM, time 24.0 hrs; remark: listed apart in the source
[8] = biological target: Histone deacetylase 2 (Homo sapiens, UniProt Q92769); assay: biochemical; type: cell-based, Sf9
Description: Inhibition of C-terminal FLAG-tagged human recombinant HDAC2 (1 to 488 residues) expressed in Sf9 insect cells using ZMAL-(Z-Lys(Ac)-AMC as substrate measured for 90 mins by microplate reader analysis

[9] = test system: HL-60; assay: Induction of apoptosis in human HL-60 cells assessed as viable cells at 1 to 5 uM measured for 48 hrs by Annexin/PI staining based analysis; type: functional; settings: dose 1-5 µM
[10] = test system: HL-60; assay: Induction of apoptosis in human HL-60 cells assessed as increase in late apoptotic cells at 1 to 5 uM measured for 48 hrs by Annexin/PI staining based analysis; type: functional, cell-based; settings: dose 1-5 µM
[11] = test system: HAL-01; assay: Synergistic cytotoxicity against human HAL-01 cells measured after 72 hrs in presence of decitabine by celltiter-glo assay; type: functional, cell-based
[12] = biological target: Histone deacetylase 3/Nuclear receptor corepressor 2 (HDAC3/NCoR2) (Homo sapiens, UniProt O15379); assay: Inhibition of C-terminal his-tagged human recombinant HDAC3 (1 to 428 residues)/N-terminal GST-tagged human recombinant NCOR2 (395 to 489 residues) expressed in Sf9 insect cells using ZMAL-(Z-Lys(Ac)-AMC as substrate measured for 90 mins by microplate reader analysis
[13] = test system: HL-60; assay: Induction of apoptosis in human HL-60 cells assessed as increase in early apoptotic cells at 1 to 5 uM measured for 48 hrs by Annexin/PI staining based analysis; type: functional, cell-based; settings: dose 1-5 µM
[14] = test system: Jurkat; assay: Synergistic cytotoxicity against human Jurkat cells measured after 72 hrs in presence of decitabine by celltiter-glo assay; type: functional, cell-based
[15] = biological target: Histone deacetylase 1 (Homo sapiens, UniProt Q13547); assay: Inhibition of C-terminal his/FLAG-tagged full length human recombinant HDAC1 (1 to 482 residues) expressed in Sf9 insect cells using ZMAL-(Z-Lys(Ac)-AMC as substrate measured for 90 mins by microplate reader analysis
Sequence of Histone deacetylase 1 (Q13547 whole entry, the tested form may be a part): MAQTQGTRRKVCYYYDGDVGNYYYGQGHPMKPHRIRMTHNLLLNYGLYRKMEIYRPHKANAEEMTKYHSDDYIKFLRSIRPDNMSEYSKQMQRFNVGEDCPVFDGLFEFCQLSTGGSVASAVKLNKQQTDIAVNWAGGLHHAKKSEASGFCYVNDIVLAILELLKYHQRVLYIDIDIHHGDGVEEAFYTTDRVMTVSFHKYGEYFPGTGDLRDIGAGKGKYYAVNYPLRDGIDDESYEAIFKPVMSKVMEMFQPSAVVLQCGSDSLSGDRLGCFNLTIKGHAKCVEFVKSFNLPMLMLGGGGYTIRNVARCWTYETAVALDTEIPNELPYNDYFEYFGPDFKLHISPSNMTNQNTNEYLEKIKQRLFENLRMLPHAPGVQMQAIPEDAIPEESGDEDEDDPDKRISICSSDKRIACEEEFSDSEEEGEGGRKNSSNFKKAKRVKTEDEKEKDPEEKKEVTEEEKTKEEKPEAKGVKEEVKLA

Sequence of Histone deacetylase 2 (Q92769 whole entry): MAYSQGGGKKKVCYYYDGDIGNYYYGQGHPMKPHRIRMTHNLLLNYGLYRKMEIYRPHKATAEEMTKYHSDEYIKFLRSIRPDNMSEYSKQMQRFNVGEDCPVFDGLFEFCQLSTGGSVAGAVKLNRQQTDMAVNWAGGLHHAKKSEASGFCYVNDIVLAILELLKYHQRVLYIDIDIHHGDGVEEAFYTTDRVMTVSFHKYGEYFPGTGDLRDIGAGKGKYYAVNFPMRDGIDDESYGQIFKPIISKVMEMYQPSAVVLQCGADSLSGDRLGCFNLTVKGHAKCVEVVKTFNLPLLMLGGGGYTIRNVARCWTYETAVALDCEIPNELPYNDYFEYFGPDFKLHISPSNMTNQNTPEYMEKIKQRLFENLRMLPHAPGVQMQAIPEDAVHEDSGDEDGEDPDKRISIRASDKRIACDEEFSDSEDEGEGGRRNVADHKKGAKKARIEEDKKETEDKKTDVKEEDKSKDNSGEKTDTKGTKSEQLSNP
Sequence of Histone deacetylase 3/Nuclear receptor corepressor 2 (HDAC3/NCoR2) (O15379 whole entry, the tested form may be a part): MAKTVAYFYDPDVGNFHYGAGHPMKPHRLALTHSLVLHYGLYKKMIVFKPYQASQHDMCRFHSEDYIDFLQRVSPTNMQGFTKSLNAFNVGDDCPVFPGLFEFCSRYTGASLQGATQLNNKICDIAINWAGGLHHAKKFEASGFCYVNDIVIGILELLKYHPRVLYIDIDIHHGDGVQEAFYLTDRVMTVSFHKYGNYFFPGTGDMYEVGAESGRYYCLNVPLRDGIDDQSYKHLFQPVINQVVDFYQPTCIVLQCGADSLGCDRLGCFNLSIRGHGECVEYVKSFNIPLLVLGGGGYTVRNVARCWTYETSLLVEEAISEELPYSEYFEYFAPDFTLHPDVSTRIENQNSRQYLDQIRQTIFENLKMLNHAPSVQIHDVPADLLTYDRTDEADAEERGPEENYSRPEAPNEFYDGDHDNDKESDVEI
Sequence of Histone deacetylase 3/Nuclear receptor corepressor 2 (HDAC3/NCoR2) (Q9Y618 whole entry, further chain, the tested form may be a part): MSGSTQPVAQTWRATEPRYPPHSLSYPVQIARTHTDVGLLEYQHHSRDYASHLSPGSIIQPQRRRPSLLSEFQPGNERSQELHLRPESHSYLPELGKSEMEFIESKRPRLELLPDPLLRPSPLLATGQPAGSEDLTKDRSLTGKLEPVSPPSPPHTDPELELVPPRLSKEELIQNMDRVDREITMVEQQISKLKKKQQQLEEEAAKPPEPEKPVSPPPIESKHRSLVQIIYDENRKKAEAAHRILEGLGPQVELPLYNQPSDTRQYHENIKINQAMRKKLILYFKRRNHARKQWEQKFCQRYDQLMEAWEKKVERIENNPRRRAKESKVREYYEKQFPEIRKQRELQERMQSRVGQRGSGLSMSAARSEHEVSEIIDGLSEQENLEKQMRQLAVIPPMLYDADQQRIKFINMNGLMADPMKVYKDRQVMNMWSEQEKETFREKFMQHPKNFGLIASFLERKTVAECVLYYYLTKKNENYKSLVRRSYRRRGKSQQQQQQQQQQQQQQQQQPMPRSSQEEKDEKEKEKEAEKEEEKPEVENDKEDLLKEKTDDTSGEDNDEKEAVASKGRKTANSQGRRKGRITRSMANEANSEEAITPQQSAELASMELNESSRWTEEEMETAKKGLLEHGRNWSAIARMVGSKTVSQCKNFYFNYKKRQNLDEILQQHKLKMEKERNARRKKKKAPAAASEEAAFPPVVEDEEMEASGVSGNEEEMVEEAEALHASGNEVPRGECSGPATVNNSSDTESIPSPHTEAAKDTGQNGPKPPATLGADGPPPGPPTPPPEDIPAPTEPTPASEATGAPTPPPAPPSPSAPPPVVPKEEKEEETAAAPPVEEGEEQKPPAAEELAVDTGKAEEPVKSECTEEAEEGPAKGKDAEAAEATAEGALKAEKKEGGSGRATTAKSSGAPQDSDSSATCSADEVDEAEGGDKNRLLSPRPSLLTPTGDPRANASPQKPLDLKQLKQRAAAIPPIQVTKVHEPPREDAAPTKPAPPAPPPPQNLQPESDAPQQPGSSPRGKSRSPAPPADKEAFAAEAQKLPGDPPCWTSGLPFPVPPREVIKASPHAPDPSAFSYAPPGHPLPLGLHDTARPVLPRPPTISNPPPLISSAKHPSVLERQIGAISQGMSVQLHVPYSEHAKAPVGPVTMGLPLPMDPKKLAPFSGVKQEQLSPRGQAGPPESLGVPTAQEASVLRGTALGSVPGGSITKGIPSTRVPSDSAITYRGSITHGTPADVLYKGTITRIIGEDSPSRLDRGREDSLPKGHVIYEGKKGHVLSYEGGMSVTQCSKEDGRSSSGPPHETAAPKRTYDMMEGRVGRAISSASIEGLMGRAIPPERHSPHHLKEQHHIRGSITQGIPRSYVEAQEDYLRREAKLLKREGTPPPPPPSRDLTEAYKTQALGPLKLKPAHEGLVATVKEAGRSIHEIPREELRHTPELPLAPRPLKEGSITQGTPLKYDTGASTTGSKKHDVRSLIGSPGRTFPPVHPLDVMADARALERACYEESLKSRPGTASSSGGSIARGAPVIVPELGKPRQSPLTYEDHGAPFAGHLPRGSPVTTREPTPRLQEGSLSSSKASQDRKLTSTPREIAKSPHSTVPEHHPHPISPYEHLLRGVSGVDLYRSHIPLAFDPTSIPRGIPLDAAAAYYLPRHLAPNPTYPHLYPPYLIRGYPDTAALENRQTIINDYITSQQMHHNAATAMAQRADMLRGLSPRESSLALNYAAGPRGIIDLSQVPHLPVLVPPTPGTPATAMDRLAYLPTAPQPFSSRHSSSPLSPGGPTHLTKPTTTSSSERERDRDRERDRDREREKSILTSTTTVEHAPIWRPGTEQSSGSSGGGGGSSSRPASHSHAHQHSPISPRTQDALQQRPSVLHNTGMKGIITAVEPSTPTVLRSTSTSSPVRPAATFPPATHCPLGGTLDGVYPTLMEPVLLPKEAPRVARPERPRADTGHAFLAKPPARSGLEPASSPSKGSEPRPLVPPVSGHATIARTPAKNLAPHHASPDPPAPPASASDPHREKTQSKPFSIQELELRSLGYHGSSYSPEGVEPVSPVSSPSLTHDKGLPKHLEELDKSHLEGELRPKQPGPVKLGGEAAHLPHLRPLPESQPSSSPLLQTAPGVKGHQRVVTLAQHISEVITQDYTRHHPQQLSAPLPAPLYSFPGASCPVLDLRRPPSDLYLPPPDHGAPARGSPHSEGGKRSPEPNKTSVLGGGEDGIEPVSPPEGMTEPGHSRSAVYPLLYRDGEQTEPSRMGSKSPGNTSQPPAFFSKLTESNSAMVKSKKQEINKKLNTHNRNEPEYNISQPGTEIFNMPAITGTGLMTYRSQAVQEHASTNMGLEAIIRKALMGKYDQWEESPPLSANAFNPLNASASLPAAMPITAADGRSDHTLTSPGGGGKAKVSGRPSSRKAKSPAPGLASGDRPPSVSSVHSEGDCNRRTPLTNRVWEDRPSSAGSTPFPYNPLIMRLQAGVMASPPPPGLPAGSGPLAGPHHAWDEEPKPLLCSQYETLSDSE

Row | SMILES | IC50 [1] [µM] | IC50 [2] [µM] | IC50 [3] [µM] | also measured
1 | CCc1ccccc1N(CC(=O)NC1CCCCC1)C(=O)Cc1ccc(C(=O)NO)cc1F | 1.44 | 3.21 | 1.51 | 
2 | CCCCNC(=O)CN(C(=O)Cc1ccc(C(=O)NO)cc1)c1ccccc1 | 3.12 | 4.03 | 2.68 | 
3 | Cc1ccc(N(CC(=O)NC2CCCCC2)C(=O)Cc2ccc(C(=O)NO)cc2)cc1 | 0.23 | 0.41 | 0.36 | Activity [4]: Active; inhibition [5]: Active; Activity [6]: Active; inhibition [7]: 2.67%; IC50 [8]: 0.112 µM; Activity [9]: 50%; Activity [10]: Active; Activity [11]: Active; IC50 [12]: 0.042 µM; Activity [13]: Active
4 | O=C(CN(C(=O)Cc1ccc(C(=O)NO)cc1)c1ccccc1C(F)(F)F)NC1CCCCC1 | 3.03 | 4.58 | 2.09 | 
5 | Cc1ccccc1N(CC(=O)NC1CCCCC1)C(=O)Cc1ccc(C(=O)NO)cc1F | 2.32 | 3.08 | 2.04 | Activity [14]: inactive; IC50 [8]: 0.787 µM; Activity [11]: inactive; IC50 [12]: 0.52 µM
6 | O=C(CN(C(=O)Cc1ccc(C(=O)NO)cc1)c1ccccc1)NC1CCCCC1 | 2.02 | 2.54 | 1.83 | 
7 | CC(C)(C)NC(=O)CN(C(=O)Cc1ccc(C(=O)NO)cc1)c1ccccc1 | 4.91 | 8.31 | 5.99 | 
8 | Cc1cccc(N(CC(=O)NC2CCCCC2)C(=O)Cc2ccc(C(=O)NO)cc2)c1 | 1.89 | 2.59 | 1.75 | 
9 | O=C(CN(C(=O)Cc1ccc(C(=O)NO)cc1)c1ccccc1)NCc1ccccc1 | 2.15 | 2.29 | 2.31 | IC50 [15]: 0.283 µM
10 | O=C(CN(C(=O)Cc1ccc(C(=O)NO)cc1F)c1ccccc1)NC1CCCCC1 | 2.08 | 2.42 | 1.34 | 
11 | CCc1ccccc1N(CC(=O)NC1CCCCC1)C(=O)Cc1ccc(C(=O)NO)cc1 | 1.43 | 2.28 | 1.34 | 
12 | Cc1ccccc1N(CC(=O)NC1CCCCC1)C(=O)Cc1ccc(C(=O)NO)cc1 | 1.51 | 2.52 | 2.31 | 
13 | O=C(CN(C(=O)Cc1ccc(C(=O)NO)cc1F)c1ccccc1C(F)(F)F)NC1CCCCC1 | 1.79 | 2.28 | 1.61 | 
